Measurements: patent US11912789B2, “Peptide activating agent” (Interk Peptide Therapeutics Limited, priority 2018, dated 2024)

Test system: PBMCs
Assay: Foxp3+ Treg proportion in anti-CD3 stimulated PBMCs
Type: cell-based, human
Details: in the absence of RSKAKNPLYR-(2Adod)4-NH2; FIG. 9
Experimental: Shown is the percentage inhibition of Regulatory T cells (Tregs:Foxp3+) within human PBMCs in the presence of RSKAKNPLYR-(2Adod)4-NH2 (cells gated for CD4+/CD25+/CD127101. Anti-CD3 stimulated PBMCs were cultured together with RSKAKNPLYR-(2Adod)4-NH2 over a 5-concentration range plus vehicle control (0-1.25 μM) for 48 hrs. Treg populations were determined by measuring Foxp3+ proportion of cells within CD4+CD25+CD127^low population. Data were normalised due to donor variation. Data presented indicates the fold change in Foxp3+ Treg proportions in response to peptide treatment, +/−SEM, n=4. Data were analysed by RM two-way ANOVA with Dunnett's post-test comparing each peptide concentration with […], **p<0.01, ****p<0.0001. Dotted line indicates vehicle control for normalisation.
Anti-CD3 stimulated PBMCs were cultured together with RSKAKNPLYR-(2Adod)4-NH2, over a 5-concentration range plus vehicle control (0-1.25 μM) in combination with anti-PD-1 (Pembrolizumab) or isotype (hlgG4) for 48 hrs after which CD4+ and CD8+ T cells were assessed by flow cytometry. Treg populations were determined by measuring Foxp3+ proportion of cells within CD4+CD25+CD127^low populations. […] Data were analysed by RM two-way ANOVA with Sidak's post-test comparing peptide in combination with anti-PD-1 vs combination with hlgG4 at each dose, *p<0.05, **p<0.01. […]

Pembrolizumab [anti-PD-1 antibodies]
proportion of Treg cells within PBMCs, anti-PD-1 versus isotype control: same proportion of Treg cells
